Legend:
[1] = biological target: T1, OpSTR (strictosidine synthase from Ophiorrhiza pumila) (Ophiorrhiza pumila, UniProt Q94LW9); experiment: X-ray crystal structure (cocrystallization with racemate); assay type: binding; set-up: gene str; N-terminal signal peptide removed for improved expression; conditions: active site, near Glu276
[2] = biological target: T1, OpSTR (strictosidine synthase from Ophiorrhiza pumila); experiment: biochemical; set-up: gene str
[3] = substrate: CC(C)CC=O; experiment: enzyme kinetics of Pictet-Spengler reaction; assay type: biochemical, Ophiorrhiza pumila; conditions: co-substrate tryptamine

Row | Molecule | X-ray crystal structure (cocrystallization with racemate) [1] | IC50 [2] [µM] | further results
1 | CC[C@@H]1NCCc2c1[nH]c1ccccc21 [3c, (S)-3c] | exclusively the (S)-enantiomers of 3a–c were identified in the active site of OpSTR | – | –
2 | CCC[C@@H]1NCCc2c1[nH]c1ccccc21 [3b, (S)-3b] | exclusively the (S)-enantiomers of 3a–c were identified in the active site of OpSTR | – | –
3 | C[C@@H]1NCCc2c1[nH]c1ccccc21 [(S)-3d] | – | 1600 ± 100 | –
4 | CC1NCCc2c1[nH]c1ccccc21 (racemic) [rac-3d] | – | 3400 ± 300 | –
5 | CC(C)C[C@@H]1NCCc2c1[nH]c1ccccc21 [3a, (S)-3a] | exclusively the (S)-enantiomers of 3a–c were identified in the active site of OpSTR | – | –
6 | OpSTR (strictosidine synthase from Ophiorrhiza pumila) (Ophiorrhiza pumila) (protein, N-terminal signal peptide removed for improved expression) SPEFFEFIEAPSYGPNAYAFDSDGELYASVEDGRIIKYDKPSNKFLTHAVASPIWNNALCENNTNQDLKPLCGRVYDFGFHYETQRLYIADCYFGLGFVGPDGGHAIQLATSGDGVEFKWLYALAIDQQAGFVYVTDVSTKYDDRGVQDIIRINDTTGRLIKYDPSTEEVTVLMKGLNIPGGTEVSKDGSFVLVGEFASHRILKYWLKGPKANTSEFLLKVRGPGNIKRTKDGDFWVASSDNNGITVTPRGIRFDEFGNILEVVAIPLPYKGEHIEQVQEHDGALFVGSLFHEFVGILHNYKSSVDHHQEKNSGGLNASFKEFSSF | – | – | Km [3]: 5.36 ± 0.83 mM

— publication PMC6966912, “Inverted Binding of Non-natural Substrates in Strictosidine Synthase Leads to a Switch of Stereochemical Outcome in Enzyme-Catalyzed Pictet–Spengler Reactions” (Journal of the American Chemical Society, 2020)
